Data from patent US11311475B2, “Skin care compositions containing peptide compound and aphanothece sacrum exopolysaccharide extract” (The Procter & Gamble Company, priority 2019, dated 2022).

Assay: Franz diffusion cell skin penetration assay
Assay type: in vitro ADME, human
Details: for pal-KT Skin Penetration: Surface Residual / pal-KT Skin Penetration: Dermis / pal-KT Skin Penetration: Epidermis / pal-KT Skin Penetration: Total Penetration / pal-KT Skin Penetration: Receptor: pal-KT 5 ppm; for pal-KT Skin Penetration: Surface Residual: 14C-spiked, 24 h after topical dose on human skin; for pal-KT Skin Penetration: Total Penetration: epidermis+dermis+receptor; for pal-KT Skin Penetration: Receptor: receptor solution (transdermal)
Protocol: The method is described. […] (40 ppm) is assessed using the Franz diffusion cell assay (4, T. J. Franz, J. Invest. Dermatol. 64: 190-195, 1975; T. J. Franz, et al., Skin Pharmacol. Physiol. 22: 276-286, 2009). The peptides are formulated in a skin care silicone-in-water (SWF) formulation with or without 10 wt % SACRAN. The formulations are spiked with ^14C-pal-KT or ^3H-PKEK. Twenty-four hours after topically dosed on human skin, residual product is removed from the skin surface, the epidermal and dermal layers were separated, and receptor solutions (transdermal) are collected.

[1] = SWF + 10 wt % SACRAN versus SWF, 24 h, human skin
[2] = SWF formulation without SACRAN (control), 24 h

amount recovered from the surface of the skin with SACRAN versus without (in words) [1]: statistically significant lower amount
effect of addition of SACRAN on skin penetration (in words) [1]: increased
pal-KT Skin Penetration: Surface Residual (SWF + 10 wt % SACRAN): 173.2 ± 18.1 ng/cm^2
pal-KT Skin Penetration: Dermis (SWF + 10 wt % SACRAN, 24 h): 14.8 ± 1.65 ng/cm^2
pal-KT Skin Penetration: Epidermis (SWF + 10 wt % SACRAN, 24 h): 128.3 ± 17.1 ng/cm^2
pal-KT Skin Penetration: Total Penetration (SWF + 10 wt % SACRAN, 24 h): 143.3 ± 18.1 ng/cm^2
pal-KT Skin Penetration: Receptor (SWF + 10 wt % SACRAN, 24 h): 0.09 ± 0.07 ng/cm^2
increase in skin penetration by addition of SACRAN to SWF (SWF + SACRAN versus SWF, single topical application): 60%
pal-KT Skin Penetration: Surface Residual (SWF formulation without SACRAN (control)): 228.5 ± 10.2 ng/cm^2
pal-KT Skin Penetration: Dermis [2]: 14.3 ± 1.4 ng/cm^2
pal-KT Skin Penetration: Epidermis [2]: 72.5 ± 9.5 ng/cm^2
pal-KT Skin Penetration: Total Penetration [2]: 88.0 ± 10.2 ng/cm^2
pal-KT Skin Penetration: Receptor [2]: 0.14 ± 0.14 ng/cm^2
SMILES: CCCCCCCCCCCCCCCC(=O)N[C@@H](CCCCN)C(=O)N[C@H](C(=O)O)[C@@H](C)O [pal-KT, palmitoyl-lysine-threonine]
